The source of these data is patent US20210345603A1, “COMPOSITION INTENDED FOR INCREASING THE VELOCITY OF SPERMS COMPRISING SEROTONIN AS ACTIVE COMPOUND” (YILDIZ TEKNÍK ÜNIÌVERSÍTESÌ, priority 2018, published 2021).

One experiment deals with sperm cells. Nature of the experiment: Sperm motility test in Makler counting chamber after incubation in sperm wash medium. The format is cell-based, human. Also on record: unit not given here. The procedure: The first step is to collect the sperm cells and the semen of the infertile men within the range of 28-45 is used. Specimens are obtained after a sexual abstinence for 3-4 days. All semen specimens are collected in sterile containers and left to liquefy at 37° C. for 30 minutes. 10 μl of sample is taken into Makler® counting chamber and the concentrations, motilities, viabilities, morphologies of the sperms and the leukocyte existence are evaluated. According to the motility results, the semen specimen is prepared by being washed with HTF based sperm wash solution containing Hepes buffer by using concentration and gradient methods. Washed and prepared sperms are collected in the sperm wash medium in which certain amounts of (25, 50, 100 and 200 μM) 5-HT was added, and incubated at 25′C in certain periods of time (30, 60, 90 and 120 minutes).
Sperm motility tests are performed with the sperms kept in a serotonin medium, by the measurements in the Makler® counting chamber with 30, 60, 90 and 120 min. intervals. Samples with a sperm concentration of 2×10^6 and 50×10^5 per ml max. are included in the analyses. As to the interactions of serotonin and the excipients, washed sperm cells are taken into the sperm wash mediums containing 5-HT and vitamin D, serotonin, selenium, zinc mineral, vitamin C, vitamin E, vitamin B9, vitamin B12 in certain amounts respectively, and are incubated for certain time intervals in an incubator. The dosage of the compounds is determined by examining the effect of the same on sperm motility, both individually and in combination.

The subject of another experiment is fruit flies. The conditions noted are these: fruit flies incapable of mating, after being fed with serotonin; cited from earlier work.

As for `NCCc1c[nH]c2ccc(O)cc12` [serotonin], the “Change in Average Motility” value in the experiment on sperm cells (25 μM serotonin, 30 min incubation at 25° C.) is 82.76; with sperm cells (25 μM serotonin, 60 min incubation at 25° C.), 86.28; in the experiment on sperm cells (25 μM serotonin, 90 min incubation at 25° C.) it was 81.48; in the experiment on sperm cells (25 μM serotonin, 120 min incubation at 25° C.), 81.41; with sperm cells (50 μM serotonin, 30 min incubation at 25° C.) it was 80.56; in the experiment on sperm cells (50 μM serotonin, 60 min incubation at 25° C.) it was 81.66. The “Change in Average Motility” value in the experiment with sperm cells (50 μM serotonin, 90 min incubation at 25° C.) came out at 86.08; with sperm cells (50 μM serotonin, 120 min incubation at 25° C.), 80.45; in the experiment on sperm cells (100 μM serotonin, 30 min incubation at 25° C.), 83.53; with sperm cells (100 μM serotonin, 60 min incubation at 25° C.), 80.16; in the experiment on sperm cells (100 μM serotonin, 90 min incubation at 25° C.) it was 83.86; in the experiment on sperm cells (100 μM serotonin, 120 min incubation at 25° C.) it was 80.4. In addition, the “Change in Average Motility” value in the experiment with sperm cells (200 μM serotonin, 30 min incubation at 25° C.) turned out to be 82.06; with sperm cells (200 μM serotonin, 60 min incubation at 25° C.), 86.46; in the experiment on sperm cells (200 μM serotonin, 90 min incubation at 25° C.) it was 86.55; in the experiment on sperm cells (200 μM serotonin, 120 min incubation at 25° C.) it was 82.55. Besides, the Mating rate in the experiment with fruit flies is 25%.
